Laboratory results: patent publication US8288421B2, “Phenylaminopyridines” (Basilea Pharmaceutica AG, priority 2004, dated 2012)
One block for each compound: values may come before it.

What was measured:
[1] = system: HeLa; test: Hoechst 33342 nuclear staining; assay type: cell-based, human; details: 48 h read-out
Description: (§1) This assay is performed in 96 well tissue culture plates. Appropriate number of cells (adherent cells: 3-5*10^3, suspension cells: 8-10*10^3) are being seeded out in 80 μl complete medium. Adherent cells are incubated for 24 h for proper spreading out before addition of test compounds while suspension cells are immediately treated with test compounds after seeding out. The test compounds are added in 20 μl complete medium containing max 5% DMSO. The final compound concentrations in the assays are in the range of 0.001 μM-10 μM. […] The assay plates are then further incubated for 30 minutes and subsequently analyzed with a standard inverted fluorescence microscope.
(§2) The readout allows the determination of the fraction of apoptotic nuclei as well as other morphological criteria specific for apoptosis as a function of the treatment. The scores A, B, C and D are explained at the end of the Table.

[2] = system: Jurkat; test: Hoechst 33342 nuclear staining; assay type: cell-based, human; details: 48 h read-out
Description: as §1, §2

[3] = system: PBL; test: Hoechst 33342 nuclear staining; assay type: cell-based, human; details: 48 h read-out
Description: as §1, §2

[4] = system: Jily; test: Hoechst 33342 nuclear staining; assay type: cell-based; details: 48 h read-out
Description: as §1, §2

[5] = system: MRC5; test: Hoechst 33342 nuclear staining; assay type: cell-based; details: MRC5, 48 h read-out
Description: as §1, §2

[6] = system: HT1080; test: MTS proliferation assay; assay type: cell-based, human; details: HT1080, 72 h read-out
Description: (§3) The assay is performed in 96 well tissue culture plates. The cells (range: 1.5*10^3-10^4) are seeded out in 80 μl complete medium 24 h prior to compound treatment. The test compounds are added in 20 μl complete medium containing max 5% DMSO. The final compound concentrations in the assays are in the range of 0.001 μM-10 μM. The assay plates are incubated for 72 h at culture conditions. The MTS reagent is prepared according to the manufacturer's protocol (Promega G1111). 20 μl MTS reagent are added to each well, the assay plates are quickly spun and incubated for another 3 h at culture conditions. Subsequently, the plates are shortly shaked and absorption measured with a microplate-reader at 492 nm. The scores A, B, C and D are explained at the end of the Table.

[7] = system: HeLa; test: MTS proliferation assay; assay type: cell-based, human; details: 72 h read-out
Description: as §3

[8] = system: Jurkat; test: MTS proliferation assay; assay type: cell-based, human; details: 72 h read-out
Description: as §3

[9] = system: Jily; test: MTS proliferation assay; assay type: cell-based; details: 72 h read-out
Description: as §3

[10] = system: MRC5; test: MTS proliferation assay; assay type: cell-based; details: MRC5, 72 h read-out
Description: as §3

[11] = system: HeLa; test: PI staining for cell cycle distribution; assay type: cell-based, human; details: 24 h read-out, read-out: PI staining for cell cycle distribution EC50 (G2M arrest), HeLa
Description: 1-2*10^5 cells are seeded into 24 well tissue culture plates and incubated for 24 h prior to compound addition. Compounds are added for 24 h in a final concentration of 3 μM or 10 μM. Adherent cells are harvested by trypsinization. The cell suspensions are fixed by adding 2 parts ice cold ethanol 100% while vortexing. Then the samples are stored for >2 h at −20° C. Subsequently the cells are washed with PBS once and resuspended in 250 μl PBS containing 50 μg/ml PI (Calbiochem #537059), then the samples are incubated at 37° C. for 30 minutes and subsequently analyzed on a FACSCalibur™ monitoring linear PI fluorescence activity on FL2. The readout allows the detection of a possible direct or indirect influence of the tested compounds on the cell cycle. All active test compounds induce an arrest of the cell population in the G2M phase. This effect has been quantified by running the test at different concentrations. In Table 4 EC50 values are tabulated.

[12] = system: HeLa; test: Mitochondrial membrane potential (JC-1); assay type: cell-based, human; details: 48 h read-out
Description: as §1, with “20 μal” for “20 μl”, “DMSO.” for “DMSO. The final compound concentrations in the assays are in the range of 0.001 μM-10 μM.”, “fluorescence microscope by using the FITC and TRITC filters.” for “fluorescence microscope.”
(§4) The scores A, B, C and D are explained at the end of the Table.

[13] = system: Jurkat; test: Mitochondrial membrane potential (JC-1); assay type: cell-based, human; details: 48 h read-out
Description: as §1, with “20 μal” for “20 μl”, “DMSO.” for “DMSO. The final compound concentrations in the assays are in the range of 0.001 μM-10 μM.”, “fluorescence microscope by using the FITC and TRITC filters.” for “fluorescence microscope.”
as §4

[14] = system: MCF7; test: Mitochondrial membrane potential (JC-1); assay type: cell-based, human; details: MCF7, 48 h read-out
Description: as §1, with “20 μal” for “20 μl”, “DMSO.” for “DMSO. The final compound concentrations in the assays are in the range of 0.001 μM-10 μM.”, “fluorescence microscope by using the FITC and TRITC filters.” for “fluorescence microscope.”
as §4

[15] = system: PBL; test: Mitochondrial membrane potential (JC-1); assay type: cell-based, human; details: 48 h read-out
Description: as §1, with “20 μal” for “20 μl”, “DMSO.” for “DMSO. The final compound concentrations in the assays are in the range of 0.001 μM-10 μM.”, “fluorescence microscope by using the FITC and TRITC filters.” for “fluorescence microscope.”
as §4

[16] = system: DOHH2; test: Mitochondrial membrane potential (JC-1); assay type: cell-based; details: DOHH2, 48 h read-out
Description: as §1, with “20 μal” for “20 μl”, “DMSO.” for “DMSO. The final compound concentrations in the assays are in the range of 0.001 μM-10 μM.”, “fluorescence microscope by using the FITC and TRITC filters.” for “fluorescence microscope.”
as §4

[17] = system: H460; test: Colony Forming Units; assay type: cell-based, human; details: H460, read-out after 6 days
Description: (§5) Appropriate numbers of cells (100-150 cells, dependent on the cell type) are being seeded out in 1 ml complete medium into 6-well plates and allowed to attach for 48 h. The compounds are added after 48 h in 500 μl solution. The concentrations are in the range of 0.001 μM-3 μM. Control plates receive the same volume of medium containing the appropriate amount of DMSO. The plates are incubated for 6 days at cell culture conditions and subsequently scored for growth of colonies (containing more than 30 cells) by using a microscope.

[18] = system: HeLa; test: Colony Forming Units; assay type: cell-based, human; details: read-out after 6 days
Description: as §5

EC50 ([1]; Homo sapiens): 0.01 to 0.1 µM | EC50 ([2]; Homo sapiens): 0.01 to 0.1 µM | EC50 ([3]; Homo sapiens): > 1 µM | EC50 [4]: 0.01 to 0.1 µM | IC50 ([6]; Homo sapiens, HT-1080): 0.01 to 0.1 µM | IC50 ([7]; Homo sapiens): 0.01 to 0.1 µM | IC50 ([8]; Homo sapiens): < 0.01 µM | EC50 ([11]; Homo sapiens): 0.1 to 1 µM | EC50 ([12]; Homo sapiens): 0.01 to 0.1 µM | EC50 ([13]; Homo sapiens): 0.01 to 0.1 µM | EC50 ([14]; Homo sapiens): > 1 µM | EC50 ([15]; Homo sapiens): > 1 µM | EC50 ([16]; Homo sapiens, DOHH-2): 0.01 to 0.1 µM | IC50 ([17]; Homo sapiens, NCI-H460, 144 h): 0.1 to 1 µM | IC50 ([18]; Homo sapiens, 144 h): 0.1 to 1 µM | melting point: 135 to 140 °C
Compound: COc1ccc(Nc2cncc(-c3cccc(NC(=O)c4ccccc4)c3)c2)cc1 [Example 2, 3-(m-Benzoylaminophenyl)-5-(p-methoxyphenylamino)pyridine]
EC50 ([5]; Homo sapiens): > 1 µM | IC50 [9]: < 0.01 µM | IC50 ([10]; Homo sapiens): 0.01 to 0.1 µM

EC50 [1]: 0.1 to 1 µM | EC50 [2]: 0.01 to 0.1 µM | EC50 [3]: > 1 µM | EC50 [4]: 0.01 to 0.1 µM | IC50 [6]: 0.01 to 0.1 µM | IC50 [7]: 0.1 to 1 µM | IC50 [8]: 0.01 to 0.1 µM | EC50 [11]: 0.1 to 1 µM | EC50 [12]: 0.1 to 1 µM | EC50 [13]: < 0.01 µM | EC50 [14]: > 1 µM | EC50 [15]: > 1 µM | EC50 [16]: < 0.01 µM | IC50 [17]: 0.01 to 0.1 µM | IC50 [18]: 0.01 to 0.1 µM
Compound: CCS(=O)(=O)Nc1cccc(-c2cncc(Nc3ccc(OC)cc3)c2)c1 [Example 4]
EC50 [5]: 0.01 to 0.1 µM | IC50 [9]: 0.01 to 0.1 µM | IC50 [10]: 0.1 to 1 µM
